The record followed here is patent US20070197388A1, “Haloperoxidase treatment to control algae” (Buckman Laboratories International, Inc., priority 2006, published 2007).

Some results are limits rather than exact numbers.

Holding throughout (format): cell-based
Experiment [1] concerns Chlorella sp. (ATCC 7516). Kind of experiment: Evaluation of algaecidal activity (MIC) and checkerboard synergy, Chlorella sp. The protocol: Evaluation of […] Activity: This test method provides a technique for screening newly synthesized compounds for their effectiveness to inhibit (repress) algae growth. […] Apparatus: Test tubes, 18-150 mm. Sterilized test tubes are required. Incubator, capable of a constant (±2° C.) temperature and light regulation. Reagents and Materials: [table] Inoculum: Cell suspension from a culture grown in modified Allen's medium for 14 days or as needed to attain a desired cell mass of Chlorella sp. (ATCC 7516) or Phormidium faveolarum (UTEX 427). The inoculum is calibrated at 82% transmittance measured at 590 nanometers wavelength before inoculation. Procedure: Medium preparation: Modified Allen's medium (Allen, A. A., 1968). [table] Sterilize the medium in the autoclave for 20 minutes at 15 pounds pressure (121° C.). After autoclaving, cool medium to 45-50° C. and dispense 5 ml of medium per test tube, then add the compound and the inoculum. Compound incorporation: Prepare a stock solution in water of the compound to be tested. The concentration of the stock solution is dependent on the largest dosage desired to be tested. Dilute the stock solution to obtain dosages smaller than that chosen for the stock solution. A maximum amount of 100 microliters of stock solution or the corresponding dilution should be added per test tube. Inoculation: Add 100 microliters of inoculum per test tube, per type of medium and type of inoculum. Incubation: Place the test tubes containing the treatments in an incubator set at 24° C. Light is provided by plant growth fluorescent tubes set to provide 16 h of light and 8 h of darkness. […] The minimum inhibitory concentration (MIC) of the compound is the smallest dosage showing negative algae growth. Synergy Evaluation: Synergy was measured by checkerboards dilutions (Yan and Hancock, 2001), in which one compound is diluted along the rows of test tubes and the other is diluted along the columns. This method focuses on looking for a reduction in the MIC of each component in the presence of the other.

Experiment [2] relates to Enterobacter aerogenes (ATCC 13048). Kind of experiment: Evaluation of bactericidal activity (MIC, >=90% kill) and checkerboard synergy, Enterobacter aerogenes. The settings on record: Klebsiella aerogenes, ATCC13048; alone; system with 2 ppm a.i. Hydrogen Peroxide; 18 hours at 37° C.; read-out: MICA = MIC of Dichloramine B. The method, then: Synergy Evaluation: Synergy was measured by checkerboards dilutions (Yan and Hancock, 2001), in which one compound is diluted along the rows of test tubes and the other is diluted along the columns. This method focuses on looking for a reduction in the MIC of each component in the presence of the other. The result is expressed as the Fractional Inhibitory Concentration Index (FIC), calculated as follows: FIC=[A]/MICA+[B]/MICB where, • MICA and MICB=MICs of the compounds A and B alone • [A] and [B]=MICs of the compounds A and B when in combination.
Evaluation of Bactericidal Activity: This method is suitable for use in evaluating the antibacterial properties of chemicals by determining their MIC value. The MIC value represents the Minimum Inhibitory Concentration defined as the lowest level of compound required to achieve a ≧90% kill of a given organism.
Equipment • 1. Test tubes, 18×150 mm disposable culture tubes sterile • 2. Sterile 1 ml and 10 ml pipettes • 3. Incubator capable of maintaining a temperature of 37° C.±1° C. • 4. Autoclave • 5. pH meter • 6. […]
Rating of tubes via plate count method: The Pour Plate Count agar was prepared as described in Standard Methods (American Public Health Association; 1995). […] Colonies formed in or on the plate count medium within 48±2 h were counted as described in Standard Methods, and the results were reported as CFU/milliliter. […]

Experiment [3] deals with Phormidium faveolarum (UTEX 427). Kind of experiment: Evaluation of algaecidal activity (MIC) and checkerboard synergy, Phormidium faveolarum. The settings on record: alone, system with 1 ppm a.i. Hydrogen Peroxide, 14 days at 24° C. The method, then: Evaluation of Algaecidal Activity: This test method provides a technique for screening newly synthesized compounds for their effectiveness to inhibit (repress) algae growth.
Apparatus: Test tubes, 18-150 mm. Sterilized test tubes are required.
Incubator, capable of a constant (±2° C.) temperature and light regulation.
Inoculum: Cell suspension from a culture grown in modified Allen's medium for 14 days or as needed to attain a desired cell mass of Chlorella sp. (ATCC 7516) or Phormidium faveolarum (UTEX 427). The inoculum is calibrated at 82% transmittance measured at 590 nanometers wavelength before inoculation.
Procedure: Medium preparation: Modified Allen's medium (Allen, A. A., 1968).
Sterilize the medium in the autoclave for 20 minutes at 15 pounds pressure (121° C.). After autoclaving, cool medium to 45-50° C. and dispense 5 ml of medium per test tube, then add the compound and the inoculum. […]
Synergy Evaluation: Synergy was measured by checkerboards dilutions (Yan and Hancock, 2001), in which one compound is diluted along the rows of test tubes and the other is diluted along the columns. […] The result is expressed as the Fractional Inhibitory Concentration Index (FIC), calculated as follows: FIC=[A]/MICA+[B]/MICB where, • MICA and MICB=MICs of the compounds A and B alone • [A] and [B]=MICs of the compounds A and B when in combination.

Where [4] appears, read: alone, system with 1 ppm a.i. Hydrogen Peroxide, 14 days at 24° C.

What is called MIC is the smallest concentration in the dilution series that meets the test's criterion for growth inhibition. As to `O=S(=O)(c1ccccc1)N(Cl)Cl` [Dichloramine B, N,N-dichlorobenzenesulfonamide], the “MIC Dichloramine B combined with Haloperoxidase and Hydrogen Peroxide” value in experiment [1] (combined with 1 ppm product of Haloperoxidase (Novozyme) and 2 ppm a.i. Hydrogen Peroxide, 14 days at 24° C.) is reported as less than 0.07 ppm a.i. Besides, the minimal inhibitory concentration (MIC) in experiment [2] was 5 µg/mL.
For `CCCCCCCCCCCCCCCC[N+](C)(C)CC.[Br-]` [EHDB, Ethyl-n-Hexadecyl Dimethylammonium Bromide], the MIC in experiment [3] (336 h, read-out: MICA = MIC of EHDB) turned out to be 0.5 µg/mL. Besides, in experiment [1] (setting [4]), the “MICA = MIC of EHDB” value turned out to be 0.5 MICA mg a.i./l.
Turning to “Benzalkonium Chloride [reference compound]”, the “MICA = MIC of Benzalkonium Chloride” value in experiment [3] turned out to be 2 MICA mg a.i./l; in experiment [1] (alone, reinoculated after 14 days and treated with 1 ppm of hydrogen peroxide, incubated 14 days), 2 MICA mg a.i./l; in experiment [1] (setting [4]), 1 MICA mg a.i./l. For the same molecule, the “dosage controlling algae growth” value in experiment [1] (Example 7, reinoculated only after 14 days, incubated 14 days (result not shown)) came out at 2 ppm a.i.

B1: Myeloperoxidase: a myeloperoxidase enzyme obtained from Biodesign International (protein, UniProt P05164 165-745, looked up)
Myeloperoxidase: VTCPEQDKYRTITGMCNNRRSPTLGASNRAFVRWLPAEYEDGFSLPYGWTPGVKRNGFPVALARAVSNEIVRFPTDQLTPDQERSLMFMQWGQLLDHDLDFTPEPAARASFVTGVNCETSCVQQPPCFPLKIPPNDPRIKNQADCIPFFRSCPACPGSNITIRNQINALTSFVDASMVYGSEEPLARNLRNMSNQLGLLAVNQRFQDNGRALLPFDNLHDDPCLLTNRSARIPCFLAGDTRSSEMPELTSMHTLLLREHNRLATELKSLNPRWDGERLYQEARKIVGAMVQIITYRDYLPLVLGPTAMRKYLPTYRSYNDSVDPRIANVFTNAFRYGHTLIQPFMFRLDNRYQPMEPNPRVPLSRVFFASWRVVLEGGIDPILRGLMATPAKLNRQNQIAVDEIRERLFEQVMRIGLDLPALNMQRSRDHGLPGYNAWRRFCGLPQPETVGQLGTVLRNLKLARKLMEQYGTPNNIDIWMGGVSEPLKRKGRVGPLLACIIGTQFRKLRDGDRFWWENEGVFSMQQRQALAQISLPRIICDNTGITTVSKNNIFMSNSYPRDFVNCSTLPALNLASWREAS
In the case of B1, the “MIC (ppm product)” value in experiment [1] (2 ppm a.i. hydrogen peroxide as substrate, 4 ppm a.i. ammonium bromide as electron donor) was less than 0.1 ppm product.
